Data from patent US20090048301A1 (IMCLONE SYSTEMS INCORPORATED, priority 2003, published 2009).

Experiments:
bovine tubulin = test: In vitro tubulin polymerization assay (turbidity at 340 nm); format: biochemical; details: 10 μM compound, 30 minute data point, vs 1% DMSO control
Method in brief: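 Percent inhibition derives from turbidity (340 nm) at 30 min relative to 1% DMSO controls, read every minute at 37° C. Polymerization mix: 3 mg/ml bovine tubulin, <3% MAPs, in PIPES pH 7 G-PEM with 1 mM GTP, 1 mM MgCl2, 5% glycerol; enhancers also detectable.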

[1] = system: A431, human epidermoid carcinoma cells; test: Cell cycle analysis (FACS), mitotic arrest in G2/M; format: cell-based; details: Homo sapiens, A-431, 24 h, read-out: FACS Assay: concentration required to achieve inhibition in FACS assay
Method: The cell cycle analysis was performed as follows. Cancer cells (A431, human epidennoid carcinoma cells) were maintained in culture in D-MEM media with 10% FBS and 1 mg/ml glutamate. Prior to experiment, cells were plated onto 6-well plates for a final density of 500,000 cells/well at the time of treatment. Cells were treated with the compounds of the invention at a concentration of about 0.01 to 1 μM final concentrations (final 0.1% DMSO) for 24 hours, then trypsinized, collected, rinsed in PBS (phosphate buffered saline), and fixed in 70% cold ethanol overnight at 4° C. The cells were then rinsed with PBS, resuspended in PBS with 0.2% Tween, RNAse was added (final 1 μg/ml), cells were incubated at 37° C. for 15 min, followed by addition of Propidium Iodide (final 50 μg/ml), and a 30 minute incubation at room temperature. DNA ploidy was analyzed using flow cytometers (Epics Excel, Beckman-Coulter, or Guava PCA-96, Guava Technologies) and mitotic arrest characterized by massive accumulation of cells in the G2/M phase of cell cycle.
Cancer cells (A431, human epidermoid cells) were maintained in culture in D-MEM media with 10% FBS and 1 mg/ml glutamate. Prior to experiment, cells are plated onto 6-well plates for a final density of 500,000 cells/well at the time of treatment. Cells were treated with compounds at 0.01-1 μM final concentrations (final […] DMS 0) for 24 hours, then trypsinized, collected, rinsed in PBS (phosphate buffered saline), and fixed in 70% cold ethanol overnight at 4° C. Cells were then rinsed with PBS, resuspended in PBS with 0.2% Tween, RNAse was added (final 1 μg/ml), cells were incubated at 37° C. for 15 min, followed by addition of Propidium Iodide (final 50 μg/ml), and a 30 minute incubation at room temperature. DNA ploidy was analyzed using cell sorters (Epics Excel, Beckman-Coulter, or Guava PCA-96, Guava Technologies) and mitotic arrest characterized by massive accumulation of cells in the G2/M phase of cell cycle.

Structure (SMILES)	Tubulin Assay: percent inhibition at 10 μM based on 30 minute data (bovine tubulin) [%]	minimal effective concentration [1] [µM]
c1cnc(Nc2ccc3c(c2)OCO3)c(-c2nnc(Nc3ccc4c(c3)OCO4)[nH]2)c1 [Compound 32, Benzo[1,3]dioxol-5-yl-{3-[5-(benzo[1,3]dioxol-5-ylamino)-4H-[1,2,4]triazol-3-yl]-pyridin-2-yl}-amine]	54	10
c1cnc(NCc2ccncc2)c(-c2nnc(Nc3ccc4c(c3)OCO4)[nH]2)c1 [Compound 38, {3-[5-(Benzo[1,3]dioxol-5-ylamino)-4H-[1,2,4]triazol-3-yl]-pyridin-2-yl}-pyridin-4-ylmethyl-amine]	77	0.1
COc1cccc(Nc2nnc(-c3cccnc3NCc3ccncc3)[nH]2)c1 [Compound 39, {3-[5-(3-Methoxy-phenylamino)-4H-[1,2,4]triazol-3-yl]-pyridin-2-yl}-pyridin-4-ylmethyl-amine]	83	0.1
c1coc(CNc2ncccc2-c2nnc(Nc3ccc4c(c3)OCO4)[nH]2)c1 [Compound 40, {3-[5-(Benzo[1,3]dioxol-5-ylamino)-4H-[1,2,4]triazol-3-yl]-pyridin-2-yl}-furan-2-ylmethyl-amine]	71	1
COc1cccc(Nc2nnc(-c3cccnc3NCc3ccco3)[nH]2)c1 [Compound 42, Furan-2-ylmethyl-{3-[5-(3-methoxy-phenylamino)-4H-[1,2,4]triazol-3-yl]-pyridin-2-yl}-amine]	69	10
Fc1ccc(CNc2ncccc2-c2nnc(Nc3ccc4c(c3)OCO4)[nH]2)cc1F [Compound 43, {3-[5-(Benzo[1,3]dioxol-5-ylamino)-4H-[1,2,4]triazol-3-yl]-pyridin-2-yl}-(3,4-difluoro-benzyl)-amine]	84	1
CN1CCN(c2ccc(-c3nnc(Nc4ccc5c(c4)OCCO5)o3)c([N+](=O)[O-])c2)CC1 [Compound 236, (2,3-Dihydro-benzo[1,4]dioxin-6-yl)-{5-[4-(4-methyl-piperazin-1-yl)-2-nitro-phenyl]-[1,3,4]oxadiazol-2-yl}-amine]	59	–
Nc1ccccc1-c1nnc(Nc2ccc3c(c2)OCO3)o1 [Compound 237a, [5-(2-Amino-phenyl)-[1,3,4]oxadiazol-2-yl]-benzo[1,3]dioxol-5-yl-amine]	53	–
COc1ccc(S(=O)(=O)Nc2ccccc2-c2nnc(Nc3ccc4c(c3)OCO4)o2)cc1OC [Compound 238, N-{2-[5-(Benzo[1,3]dioxol-5-ylamino)-[1,3,4]oxadiazol-2-yl]-phenyl}-3,4-dimethoxy-benzenesulfonamide]	65	–
O=S(=O)(Nc1ccccc1-c1nnc(Nc2ccc3c(c2)OCO3)o1)c1cccc(OC(F)(F)F)c1 [Compound 239, N-{2-[5-(Benzo[1,3]dioxol-5-ylamino)-[1,3,4]oxadiazol-2-yl]-phenyl}-3-trifluoromethoxy-benzenesulfonamide]	49	–
Cc1cc(C)cc(CS(=O)(=O)Nc2ccccc2-c2nnc(Nc3ccc4c(c3)OCO4)o2)c1 [Compound 240, N-{2-[5-(Benzo[1,3]dioxol-5-ylamino)-[1,3,4]oxadiazol-2-yl]-phenyl}-C-(3,5-dimethyl-phenyl)-methanesulfonamide]	20	–
N#Cc1ccc(S(=O)(=O)Nc2ccccc2-c2nnc(Nc3ccc4c(c3)OCCO4)o2)cc1 [Compound 242, 4-Cyano-N-{2-[5-(2,3-dihydro-benzo[1,4]dioxin-6-ylamino)-[1,3,4]oxadiazol-2-yl]-phenyl}-benzenesulfonamide]	92	–
COc1cc(Nc2ncccc2-c2nnc(NS(=O)(=O)c3cccc(OC)c3)o2)cc(OC)c1 [Compound 243, N-{5-[2-(3,5-Dimethoxy-phenylamino)-pyridin-3-yl]-[1,3,4]oxadiazol-2-yl}-3-methoxy-benzenesulfonamide]	55	–
COc1cc(Nc2ncccc2-c2nnc(N)o2)cc(OC)c1 [Compound 243a, [3-(5-Amino-[1,3,4]oxadiazol-2-yl)-pyridin-2-yl]-(3,5-dimethoxy-phenyl)-amine]	46	–
c1ccc(-c2cnc(Nc3ccc4c(c3)OCCO4)o2)c(NCc2ccc3c(c2)OCCO3)c1 [Compound 245, (2,3-Dihydro-benzo[1,4]dioxin-6-yl)-(5-{2-[(2,3-dihydro-benzo[1,4]dioxin-6-ylmethyl)-amino]-phenyl}-oxazol-2-yl)-amine]	93	–
Fc1ccc(CNc2ccccc2-c2cnc(Nc3ccc4c(c3)OCCO4)o2)cc1F [Compound 247, {5-[2-(3,4-Difluoro-benzylamino)-phenyl]-oxazol-2-yl}-(2,3-dihydro-benzo[1,4]dioxin-6-yl)-amine]	94	–
c1cncc(CNc2ccccc2-c2cnc(Nc3ccc4c(c3)OCCO4)o2)c1 [Compound 248, (2,3-Dihydro-benzo[1,4]dioxin-6-yl)-(5-{2-[(pyridin-3-ylmethyl)-amino]-phenyl}-oxazol-2-yl)-amine]	79	–
COc1cccc(Nc2ncc(-c3ccccc3NCc3cc(OC)cc(OC)c3)o2)c1 [Compound 251, {5-[2-(3,5-Dimethoxy-benzylamino)-phenyl]-oxazol-2-yl}-(3-methoxy-phenyl)-amine]	30	–
COc1cccc(Nc2ncc(-c3ccccc3NCc3ccc(F)c(F)c3)o2)c1 [Compound 252, {5-[2-(3,4-Difluoro-benzylamino)-phenyl]-oxazol-2-yl}-(3-methoxy-phenyl)-amine]	27	–
c1ccc(-c2cnc(Nc3ccc4c(c3)OCCO4)o2)c(OCc2ccncc2)c1 [Compound 253, (2,3-Dihydro-benzo[1,4]dioxin-6-yl)-{5-[2-(pyridin-4-ylmethoxy)-phenyl]-oxazol-2-yl}-amine]	44	–
c1cncc(COc2ccccc2-c2cnc(Nc3ccc4c(c3)OCCO4)o2)c1 [Compound 254, (2,3-Dihydro-benzo[1,4]dioxin-6-yl)-{5-[2-(pyridin-3-ylmethoxy)-phenyl]-oxazol-2-yl}-amine]	95	–
COc1cccc(Nc2ncc(-c3ccccc3OCc3ccncc3)o2)c1 [Compound 256, (3-Methoxy-phenyl)-{5-[2-(pyridin-4-ylmethoxy)-phenyl]-oxazol-2-yl}-amine]	50	–
COc1cccc(Nc2ncc(-c3ccccc3OCc3cccnc3)o2)c1 [Compound 257, (3-Methoxy-phenyl)-{5-[2-(pyridin-3-ylmethoxy)-phenyl]-oxazol-2-yl}-amine]	27	–
COCCCOc1ccccc1-c1cnc(Nc2cccc(OC)c2)o1 [Compound 258, (3-Methoxy-phenyl)-{5-[2-(3-methoxy-propoxy)-phenyl]-oxazol-2-yl}-amine]	47	–
